# Experimental data published in patent US20230248744A1, “25-HYDROXYVITAMIN D2 AND/OR D3 FOR USE IN OBESITY” (CARBOGEN AMCIS B.V., priority 2020, published 2023).
# Experiment: Calculated total uptake into blood and deposition of vitamin D3 from the blood level curves (FIG. 6)
# Format: in vivo, human
# Details: for amount of vitamin D3 deposited in the first 24 hours: assuming a total blood volume of 5 liters
# Text: FIG. 6: The upper curves show the calculated total amounts of vitamin D3 arriving in blood of malabsorptive, obese and normal individuals. The lower curves show the experimental blood levels of vitamin D3 expressed in ng/mL of blood. The upper curves are as well expressed in ng/mL of blood, disregarding differing total blood volumes for malabsorptive, obese and normal individuals.
# In order to further analyze the results, the shape of the concentration/time-curves describing the observed average blood levels of vitamin D3 was used to approximately calculate its total uptake into blood after dosage. The calculation was based on the assumptions compiled in the comments regarding FIG. 6. Metabolism in terms of the appearance of 25(OH)D3 which was experimentally determined in parallel to vitamin D3 can thereby be regarded as part of the immediately disappearing percentage of the total uptake into blood, and it is reasonable to assume that there is no other relevant metabolic step in this early phase, which has to be taken into account.
# FIG. 6 presents the accordingly calculated total uptake and the experimentally determined levels of vitamin D3 for the first 24 hours after dosing. The difference between the upper (calculated) and the lower (experimental) curve represents the sum of metabolism and deposition. Herein the assumption is made that the elimination can be disregarded, because as known to the skilled person there is essentially no elimination of non-metabolized vitamin D3 from blood into urine. Metabolism in the first 24 hours results in all three cases (viz., malabsorptive, obese, and normal subjects) in the consumption of about 2 to 5 ng/mL, viz. a small part of the mentioned calculated difference (compare FIG. 7). No correction relating to said consumption seems necessary for determining the metabolite's observed concentration because the metabolite is rapidly forming a DBP-complex, characterized by a long half-life. However, the fact that the 25(OH)D3 formed must be determined as difference to baseline adds an element of uncertainty and the assumption that no more than a minor part of the 25(OH)D3 formed in this phase may not be absolutely to the point.
# wherein the same correction regarding metabolism, as described above, was used for the obese and for the normal individuals, viz. 1.5 ng/mL at 15 hours and 3.5 ng/mL at 24 hours, respectively. These values come from FIG. 7B and are charged with a significant uncertainty—due to the significant experimental error in the early part of the respective curves. But they make sense, if inspecting the subsequent increase which can be more reliably determined. […]
# The following relates to the coverage of the surface of adipocytes with vitamin D3. […] A homogenous cell diameter of 50 μm was determined to deliver about the same overall cell-surface one calculates by working with the rather wide experimental distribution of cell sizes as reported by Karin G. Stenkula et al. Thereby it was in the sense of a model consideration assumed that cubes containing large lipid droplet cubes can be used to describe the cells' shape (in other words: cubes of an edge-length of 50 μm enclosing cubes of about the same size were determined to represent a reasonable model for the description of the combined surface of the variable size cells' with their lipid droplets). […]
smiles,measurement,setting,value
"C=C1CC[C@H](O)C/C1=C/C=C1\CCC[C@]2(C)[C@@H]([C@H](C)CCCC(C)C)CC[C@@H]12 [vitamin D3, cholecalciferol]","R, deposition in fatty tissues in high BMI versus low BMI subjects","after 2½ days, from difference to Cmax and differing blood volumes",1.05 times
same,amount of vitamin D3 deposited in the first 24 hours,healthy obese subjects,92.5 µg
same,deposition of vitamin D3,"low BMI group, after 2½ days",~7400 I.U.
same,amount of vitamin D3 deposited in the first 24 hours,normal subjects,62.5 µg
same,deposition in healthy obese versus normal low BMI subjects,time point of 15 hours,1.5 times
